{"source": "patent US12415781B2", "about": "“Compounds with biguanidyl radical and uses thereof” (INSTITUT CURIE, priority 2018, dated 2025)", "key": {"[1]": {"tested_on": "MDA-MB-468 cells", "assay": "Mitochondrial morphology", "format": "cell-based, human"}, "[2]": {"tested_on": "MDA-MB-468 cells", "assay": "Mitochondrial membrane potential (MitoProbe JC-1)", "format": "cell-based, human", "experimental": "Mitochondrial membrane potential. Measurements were performed using the MitoProbe™ JC-1 assay kit (M34152, Thermo Fischer Scientific) according to the manufacturer's protocol. In brief, cells were treated with 2 μM JC-1 or CCCP ([…]) control for the indicated time."}, "[3]": {"tested_on": "MDA-MB-468 cells", "assay": "Mitochondrial ROS levels (MitoSOX Red, flow cytometry)", "format": "cell-based, human", "experimental": "ROS levels. Mitochondrial ROS was measured using MitoSOX™ Red Mitochondrial Superoxide Indicator (M36008, Thermo Fisher Scientific) according to the manufacturer's protocol."}, "[4]": {"tested_on": "MDA-MB-468 cells", "assay": "EGF-induced epithelial-to-mesenchymal transition (E-cadherin/phalloidin imaging, Western blot of markers, CD44/CD24 flow cytometry)", "format": "cell-based, human", "settings": "72 h; E-cadherin, phalloidin, fibronectin, vimentin, Zeb1, Snail, Slug, CD44high/CD24low proportion", "experimental": "(§1) Cell culture. Dulbecco's Phosphate-Buffered Saline (14190-094, 500 mL, Gibco), Dulbecco's Modified Eagle Medium (DMEM)/F12 (31331-028, 500 mL, Gibco), DMEM GlutaMAX™ (61965059, Thermo Fisher Scientific), Fetal Bovine Serum (FBS, 10270-106, Gibco), Hydrocortisone (H0888, Sigma Aldrich), Insulin (I0516 or I9278, Sigma Aldrich), PEN-STREP (DE17-602E, BioWhittaker, Lonza), Puromycin dihydrochloride (A11138-02, Life Technologies). MCF-7 (ATCC®, HTB-22™), MDA-MB-231 (ATCC®, HTB-26™), MDA-MB-468 (ATCC®, HTB-132™) and circulating tumor cells were grown in DMEM supplemented with 10% FBS and 1% penicillin (100 U/mL), streptomycin (100 μg/mL) and incubated at 37° C. with 5% CO2. To induce EMT, cells were treated with epidermal growth factor EGF (100 ng/ml) (Miltenyi Biotec) for 72 h. The human mammary epithelial cell line infected with a retrovirus carrying hTERT, SV40 and the oncogenic allele HrasV12, named HMLER cells were a generous gift from A. Puisieux. HMLER cells were cultured in DMEM/F12 supplemented with 10% FBS, 10 μg/mL insulin, 0.5 μg/mL hydrocortisone, 10 ng/ml hEGF, and 0.5 μg/mL puromycin. A mycoplasma test was performed using PCR mycoplasma detection kit (G238, Applied Biological Materials).\nWestern blotting. […] Extracts were incubated at 37° C. for 1 h.\n(§2) Flow cytometry. Metal-specific probes were synthesized as previously described."}, "[5]": {"tested_on": "MDA-MB-468 cells", "assay": "Cell death (Annexin V-FITC/PI) with cell death inhibitors", "format": "cell-based, human", "settings": "Z-VAD-FMK 50 μM, ferrostatin-1 10 μM, necrostatin-1 20 μM, 72 h; not rescued by ferrostatin-1 and necrostatin-1", "description": "Cell death. […] Data were analyzed by a LSRFortessaTM flow cytometer (BD Biosciences, San Jose, CA) and processed using Cell Quest (BD Biosciences) and FlowJo (FLOWJO, LLC) software."}, "[6]": {"tested_on": "triple negative human breast cancer cells and circulating tumor cells (CTC) from patients with colorectal cancer", "assay": "Cell viability (CellTiter-Blue), dose response of cancer cells, FIG. 1B", "format": "cell-based", "settings": "72 h, cell line not named", "experimental": "(§3) FIG. 1. […] (FIG. 1B) Dose response viability curves of cancer cells treated as indicated for 72 h. […] (FIG. 1D) Dose response viability curves of HMLER cells in epithelial and mesenchymal states treated as indicated for 72 h. Data points and error bars, mean values and s.d. of three independent biological replicates.\nas §1\n(§4) Cell viability. Cell viability was carried out by plating 1000 cells/well in 96-well plates using CellTiter-Blue® viability assay according to the manufacturer's protocol. Cells were treated as indicated for 72 h. CellTiter-Blue® reagent (G8081, Promega) was added after 72 h treatment and cells were incubated for 1-2 h before recording fluorescence intensities (ex. 560/20 nm; em. 590/10 nm) using a Perkin Elmer Wallac 1420 Victor2 Microplate Reader."}, "[7]": {"tested_on": "MDA-MB-468 cells", "assay": "Mitochondrial copper(II) levels, turn-off fluorescent probe (microscopy, flow cytometry)", "format": "cell-based, human", "settings": "48 h, reduction in fluorescence, metformin 12 mM, metforminyn 2 mM unless stated otherwise", "experimental": "FIG. 2. […] Scale bar, 10 μm. […] Scale bar, 10 μm.\nas §2\nCopper and iron levels. Cells were incubated with the relevant probes as described in Reagents section. Cells were then analyzed either by fluorescence microscopy or flow cytometry as described in Cell Imaging and Flow Cytometry sections."}, "[8]": {"tested_on": "MDA-MB-468 triple negative breast cancer cells", "assay": "Cell viability (CellTiter-Blue), epithelial and mesenchymal (EGF-induced) states, FIG. 1C", "format": "cell-based, human", "settings": "MDA-MB-468 epithelial/mesenchymal (EGF) states, condition not named", "experimental": "as §3, §1, §4"}, "[9]": {"assay": "Cyclic voltammetry of a copper(I) solution", "settings": "metformin 2 mol equiv, quasi-reversible couples", "description": "Cyclic voltammetry. Cyclic voltammetry experiments were performed with a three-electrode cell under argon. Saturated Calomel Electrode (SCE) was used as reference, a steady Glassy Carbon (GC) electrode of diameter 3 mm was selected as working electrode and a Platinum wire as counterelectrode. All cyclic voltammograms were recorded at RT with a μ-autolab III from Metrohm using Nova software with a scan rate of 0.5 V/s. MeCN was used as a degassed HPLC grade from Carlo Erba. Water was mQ H2O. Solutions with copper were prepared with 0.3 M nBu4NBF4 (180 mg) in MeCN (1.8 mL) and 200 μl of a 20 mM Cu(MeCN)4PF6 stock solution in MeCN (7.4 mg/mL)."}, "[10]": {"assay": "Cyclic voltammetry of iron solutions"}}, "note": "pIC50: −log10 of the molar value. Counter-ions that a name gives are not always drawn.", "data": [{"molecule": "C#CCCN(C)C(=N)NC(=N)N", "note": "[metforminyn]", "values": [{"measurement": "mitochondrial morphology", "setting": "[1]", "value": "alteration of mitochondrial morphology"}, {"measurement": "mitochondrial membrane potential", "setting": "[2]", "value": "reduction of mitochondrial membrane potentials"}, {"measurement": "mitochondrial reactive oxygen species (ROS) levels", "setting": "[3]", "value": "increased levels of reactive oxygen species (ROS)"}, {"measurement": "induction of EMT using EGF", "setting": "[4]", "value": "prevented"}, {"measurement": "rescue of compound-induced cell death by inhibitors", "setting": "[5]", "value": "rescued by the caspase 3 inhibitor Z-VAD-FMK"}, {"measurement": "pIC50", "setting": "[6]; 1st of four values listed 'respectively'", "value": 2.60}, {"measurement": "pIC50", "setting": "[6]; 2nd of four values listed 'respectively'", "value": 2.33}, {"measurement": "pIC50", "setting": "[6]; 3rd of four values listed 'respectively'", "value": 2.55}, {"measurement": "pIC50", "setting": "[6]; 4th of four values listed 'respectively'", "value": 2.46}, {"measurement": "mitochondrial levels of copper(II)", "setting": "[7]", "value": "increased levels of copper(II)"}, {"measurement": "pIC50", "setting": "[8]; 72 h, 1st of four values listed", "value": 1.90}, {"measurement": "pIC50", "setting": "[8]; 72 h, 2nd of four values listed", "value": 2.28}, {"measurement": "pIC50", "setting": "[8]; 72 h, 3rd of four values listed", "value": 3.10}, {"measurement": "pIC50", "setting": "[8]; 72 h, 4th of four values listed", "value": 3.05}]}, {"molecule": "CN(C)C(=N)NC(=N)N", "note": "[metformin, 1,1-Dimethylbiguanide hydrochloride]", "values": [{"measurement": "mitochondrial morphology", "setting": "[1]", "value": "alteration of mitochondrial morphology"}, {"measurement": "redox properties of copper (cyclic voltammetry)", "setting": "[9]", "value": "altered the redox properties of copper"}, {"measurement": "redox properties of iron (cyclic voltammetry)", "setting": "[10]", "value": "altered the redox properties of this metal"}, {"measurement": "mitochondrial membrane potential", "setting": "[2]", "value": "reduction of mitochondrial membrane potentials"}, {"measurement": "mitochondrial reactive oxygen species (ROS) levels", "setting": "[3]", "value": "increased levels of reactive oxygen species (ROS)"}, {"measurement": "induction of EMT using EGF", "setting": "[4]", "value": "prevented"}, {"measurement": "rescue of compound-induced cell death by inhibitors", "setting": "[5]", "value": "rescued by the caspase 3 inhibitor Z-VAD-FMK"}, {"measurement": "pIC50", "setting": "[6]; Homo sapiens, 1st of four values listed 'respectively'", "value": 1.92}, {"measurement": "pIC50", "setting": "[6]; Homo sapiens, 2nd of four values listed 'respectively'", "value": 1.82}, {"measurement": "pIC50", "setting": "[6]; Homo sapiens, 3rd of four values listed 'respectively'", "value": 2.11}, {"measurement": "pIC50", "setting": "[6]; Homo sapiens, 4th of four values listed 'respectively'", "value": 1.96}, {"measurement": "mitochondrial levels of copper(II)", "setting": "[7]", "value": "increased levels of copper(II)"}, {"measurement": "pIC50", "setting": "[8]; Homo sapiens, MDA-MB-468, 72 h, 1st of four values listed", "value": 1.61}, {"measurement": "pIC50", "setting": "[8]; Homo sapiens, MDA-MB-468, 72 h, 2nd of four values listed", "value": 1.92}, {"measurement": "pIC50", "setting": "[8]; Homo sapiens, MDA-MB-468, 72 h, 3rd of four values listed", "value": 2.26}, {"measurement": "pIC50", "setting": "[8]; Homo sapiens, MDA-MB-468, 72 h, 4th of four values listed", "value": 2.64}]}]}
